# Measured values taken from patent publication US11957687B2 (REGENERON PHARMACEUTICALS, INC., priority 2019, dated 2024).
# What was measured:
# HSD17B13 = HSD17B13 (Homo sapiens (Human), UniProt Q7Z5P4); assay: HSD17B13 enzymatic inhibition assay (150 nM or 50 nM HSD17B13); assay type: biochemical; details: 50 nM HSD17B13; read-out: Inhibition of 50 nM of HSD17B13 IC50
# [1] = Microsome stability assay, human liver microsomes; assay type: in vitro ADME; details: 1 μM compound, 0.5 mg/mL microsomal protein; for microsomal CLint at 1 h, 1 µM / half-life at 1 h, 1 µM / microsomal CLint at 1 μM / half-life at 1 μM: human, human liver microsomes, pooled, NADPH, 37° C.; for microsomal CLint at 1 h, 1 µM / microsomal CLint at 1 μM: read-out: Microsome Stability Human liver microsomes Cl; for half-life at 1 h, 1 µM / half-life at 1 μM: read-out: Microsome Stability Human liver microsomes T½
# Description: (§1) Compounds of the disclosure were screened in microsome stability assays. For the screen, test compounds were incubated at 37° C. with either human liver microsomes (Corning; #452117) or mouse liver microsomes (XenoTech; #M1000), pooled from multiple donors, at 1 μM in the presence of a NADPH regenerating system at 0.5 mg/mL microsomal protein. Positive controls included in the assay were testosterone (3A4 substrate), propafenone (2D6) and diclofenac (2C9). Samples were removed at different time points (0, 5, 10, 20, 30 and 60 minutes) and immediately mixed with cold acetonitrile containing internal standard (IS, 200 ng/mL tolbutamide and 200 ng/mL labetalol). Test compounds incubated with microsomes for 60 minutes without the NADPH regenerating system was also included. A single point for each test condition (n=1) was obtained, and samples were analyzed by LC/MS/MS. Disappearance of the test compound was assessed based on peak area ratios of analyte/IS (no standard curve).
# [2] = Microsome stability assay, mouse liver microsomes; assay type: in vitro ADME; details: 1 μM compound, 0.5 mg/mL microsomal protein; for microsomal CLint at 1 h, 1 µM / half-life at 1 h, 1 µM / microsomal CLint at 1 μM / half-life at 1 μM: mouse, mouse liver microsomes, pooled, NADPH, 37° C.; for microsomal CLint at 1 h, 1 µM / microsomal CLint at 1 μM: read-out: Microsome Stability Mouse liver microsomes Cl; for half-life at 1 h, 1 µM / half-life at 1 μM: read-out: Microsome Stability Mouse liver microsomes T½
# Description: as §1
# Chain of HSD17B13 (Q7Z5P4 other isoform, or with tags, fused parts or gaps): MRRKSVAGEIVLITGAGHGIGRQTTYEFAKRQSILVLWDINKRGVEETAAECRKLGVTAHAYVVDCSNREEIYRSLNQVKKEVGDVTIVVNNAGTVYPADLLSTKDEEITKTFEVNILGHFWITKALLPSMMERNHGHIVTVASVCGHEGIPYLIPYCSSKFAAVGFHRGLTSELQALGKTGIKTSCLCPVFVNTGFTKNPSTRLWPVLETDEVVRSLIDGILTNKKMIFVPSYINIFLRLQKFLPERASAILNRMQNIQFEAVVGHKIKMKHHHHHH
SMILES,IC50 (HSD17B13) [µM],Microsome Stability Human liver microsomes % Remaining @60 min [1] [%],"microsomal CLint at 1 h, 1 µM [1] [µL/min/mg]","half-life at 1 h, 1 µM [1] [min]",Microsome Stability Mouse liver microsomes % Remaining @60 min [2] [%],"microsomal CLint at 1 h, 1 µM [2] [µL/min/mg]","half-life at 1 h, 1 µM [2] [min]",microsomal CLint at 1 μM [2] [µL/min/mg],half-life at 1 μM [2] [min],microsomal CLint at 1 μM [1] [µL/min/mg],half-life at 1 μM [1] [min]
"COc1ccc2c(c1)CCCC2NC(=O)c1ccc(C(F)(F)F)[nH]c1=O (stereo not shown) [Compound 234, N-(6-methoxy-1,2,3,4-tetrahydronaphthalen-1-yl)-2-oxo-6-(trifluoromethyl)-1,2-dihydropyridine-3-carboxamide]",0.41,1,369,3.76,1,303,4.56,–,–,–,–
"O=C(NC(c1ccccc1)c1ccccc1)c1ccc(C(F)(F)F)[nH]c1=O [Compound 1, N-benzhydryl-2-oxo-6-(trifluoromethyl)-1,2-dihydropyridine-3-carboxamide]",1.75,66.90,13.4,103,29.00,42.4,32.7,–,–,–,–
"CCC[C@@H]1C[C@@H](NC(=O)c2ccc(C(F)(F)F)[nH]c2=O)c2ccc(C)cc2N1 [Compound 369, N-((2R,4R)-7-methyl-2-propyl-1,2,3,4-tetrahydroquinolin-4-yl)-2-oxo-6-(trifluoromethyl)-1,2-dihydropyridine-3-carboxamide]",0.11,35.70,30.8,45,95.30,–,–,< 9.6,> 145,–,–
"CCC[C@H]1Oc2cc(C)ccc2[C@@H]1NC(=O)c1ccc(C(F)(F)F)[nH]c1=O [Compound 358, N-((2R,3S)-6-methyl-2-propyl-2,3-dihydrobenzofuran-3-yl)-2-oxo-6-(trifluoromethyl)-1,2-dihydropyridine-3-carboxamide]",0.46,1,–,–,1.01,–,–,154,9,154,9
"Cc1ccc2c(c1)[C@H](NC(=O)c1ccc(C(F)(F)F)[nH]c1=O)C[C@@H](C)N2 [Compound 370, N-((2R,4R)-2,6-dimethyl-1,2,3,4-tetrahydroquinolin-4-yl)-2-oxo-6-(trifluoromethyl)-1,2-dihydropyridine-3-carboxamide]",0.27,86.70,–,–,99.10,–,–,< 9.6,> 145,< 9.6,> 145
"CCC[C@H]1Oc2ccc(C)cc2[C@@H]1NC(=O)c1ccc(C(F)(F)F)[nH]c1=O [Compound 353, N-((2R,3S)-5-methyl-2-propyl-2,3-dihydrobenzofuran-3-yl)-2-oxo-6-(trifluoromethyl)-1,2-dihydropyridine-3-carboxamide]",0.52,28.20,–,–,28.90,–,–,41.2,33.6,35.4,39.1
"CCC1CCc2cc(C)ccc2C1NC(=O)c1ccc(C(F)(F)F)[nH]c1=O (stereo not shown) [Compound 543, N-(2-ethyl-6-methyl-1,2,3,4-tetrahydronaphthalen-1-yl)-2-oxo-6-(trifluoromethyl)-1,2-dihydropyridine-3-carboxamide]",0.05,0.36,364,3.81,25.30,43.6,31.8,–,–,–,–
"Cc1ccc2c(c1)CCCC2NC(=O)c1ccc(C(F)(F)F)[nH]c1=O (stereo not shown) [Compound 235, N-(6-methyl-1,2,3,4-tetrahydronaphthalen-1-yl)-2-oxo-6-(trifluoromethyl)-1,2-dihydropyridine-3-carboxamide]",0.2,1,547,2.53,50,23.6,58.7,–,–,–,–
"CCC1CCc2cc(Cl)ccc2C1NC(=O)c1ccc(C(F)(F)F)[nH]c1=O (stereo not shown) [Compound 297, N-(6-chloro-2-ethyl-1,2,3,4-tetrahydronaphthalen-1-yl)-2-oxo-6-(trifluoromethyl)-1,2-dihydropyridine-3-carboxamide]",0.11,1.24,149,9.3,36.10,35.4,39.1,–,–,–,–
"Cc1ccc(C(CC2CC2)NC(=O)c2ccc(C(F)(F)F)[nH]c2=O)cc1 (stereo not shown) [Compound 401, N-(2-cyclopropyl-1-(p-tolyl)ethyl)-2-oxo-6-(trifluoromethyl)-1,2-dihydropyridine-3-carboxamide]",0.35,1.80,463,2.99,4,182,7.61,–,–,–,–
"CC[C@@H]1C[C@H](NC(=O)c2ccc(C(F)(F)F)[nH]c2=O)c2ccc(C)cc2N1 [Compound 366, N-((2R,4S)-2-ethyl-7-methyl-1,2,3,4-tetrahydroquinolin-4-yl)-2-oxo-6-(trifluoromethyl)-1,2-dihydropyridine-3-carboxamide]",0.06,27.30,–,–,87,–,–,< 9.6,> 145,44.2,31.3
"Cc1ccc2c(c1)[C@@H](O)CC[C@H]2NC(=O)c1ccc(C(F)(F)F)[nH]c1=O [Compound 312, N-((1R,4S)-4-hydroxy-6-methyl-1,2,3,4-tetrahydronaphthalen-1-yl)-2-oxo-6-(trifluoromethyl)-1,2-dihydropyridine-3-carboxamide]",0.45,78.40,–,–,96.90,–,–,< 9.6,> 145,< 9.6,> 145
"CCC[C@@H]1C[C@@H](NC(=O)c2ccc(C(F)(F)F)[nH]c2=O)c2cc(C)ccc2N1 [Compound 361, N-((2R,4R)-6-methyl-2-propyl-1,2,3,4-tetrahydroquinolin-4-yl)-2-oxo-6-(trifluoromethyl)-1,2-dihydropyridine-3-carboxamide]",0.3,60.50,–,–,52.90,–,–,19.2,72.3,17,82
"COc1ccc2c(c1)Oc1cc(OC)ccc1C2NC(=O)c1ccc(C(F)F)[nH]c1=O [Compound 273, 6-(difluoromethyl)-N-(3,6-dimethoxy-9H-xanthen-9-yl)-2-oxo-1,2-dihydropyridine-3-carboxamide]",0.34,66.40,13.2,105,39,31,44.7,–,–,–,–
"CC1CCc2cc(Cl)ccc2C1NC(=O)c1ccc(C(F)(F)F)[nH]c1=O (stereo not shown) [Compound 293, N-(6-chloro-2-methyl-1,2,3,4-tetrahydronaphthalen-1-yl)-2-oxo-6-(trifluoromethyl)-1,2-dihydropyridine-3-carboxamide]",0.13,0.14,231,6,33.80,37.9,36.5,–,–,–,–
"Cc1ccc2c(c1)SC(C)CC2NC(=O)c1ccc(C(F)(F)F)[nH]c1=O (stereo not shown) [Compound 385, N-(2,7-dimethylthiochroman-4-yl)-2-oxo-6-(trifluoromethyl)-1,2-dihydropyridine-3-carboxamide]",0.04,1,643,2.15,43,27,51.3,–,–,–,–
